Active and inactive are the calls of the source. No cut-off for these calls is given here.
What was measured:
SK-BR-3 = assay: Cytotoxicity against human SK-BR-3 cells after 24 hrs by MTT assay relative to NS398; format: functional, cell-based; conditions: SK-BR-3, 24 h
[1] = biological target: T1, Prostaglandin G/H synthase 2 (Homo sapiens) (UniProt P35354); assay: Inhibition of COX2
T1 sequence (whole entry): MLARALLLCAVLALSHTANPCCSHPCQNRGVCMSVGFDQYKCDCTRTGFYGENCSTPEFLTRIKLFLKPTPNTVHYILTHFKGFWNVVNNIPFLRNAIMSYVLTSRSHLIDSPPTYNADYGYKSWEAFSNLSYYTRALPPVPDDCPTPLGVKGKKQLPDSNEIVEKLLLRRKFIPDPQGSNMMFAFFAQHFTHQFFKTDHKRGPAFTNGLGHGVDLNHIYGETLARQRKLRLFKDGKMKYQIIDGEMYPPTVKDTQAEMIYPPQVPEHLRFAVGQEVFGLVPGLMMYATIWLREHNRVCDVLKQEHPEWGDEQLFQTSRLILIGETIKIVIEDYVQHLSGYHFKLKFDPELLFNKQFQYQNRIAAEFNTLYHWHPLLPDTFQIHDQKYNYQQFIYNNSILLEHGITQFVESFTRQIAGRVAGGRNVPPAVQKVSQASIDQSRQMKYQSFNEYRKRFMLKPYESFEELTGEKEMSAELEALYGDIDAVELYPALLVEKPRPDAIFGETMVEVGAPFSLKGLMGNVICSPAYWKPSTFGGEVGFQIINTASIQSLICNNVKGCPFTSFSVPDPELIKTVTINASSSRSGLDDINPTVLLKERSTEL

Structure (SMILES) | Activity [1] | IC50 (SK-BR-3)
CS(=O)(=O)Nc1ccc([N+](=O)[O-])cc1OC1CCCCC1 [NS-398] |  | 0.72 µM
CC(C)Oc1cc([N+](=O)[O-])ccc1N(C)S(C)(=O)=O | inactive | 1.79 µM
CCC(CC)Oc1cc([N+](=O)[O-])ccc1N(C)S(C)(=O)=O | inactive | 0.84 µM
CN(c1ccc([N+](=O)[O-])cc1OC1CCCC1)S(C)(=O)=O | inactive | 1.09 µM
CCCOc1cc([N+](=O)[O-])ccc1N(C)S(C)(=O)=O | inactive | 1.24 µM

Further lines, with some results ahead:

Activity [1] | Structure (SMILES) | IC50 (SK-BR-3)
inactive | CN(c1ccc([N+](=O)[O-])cc1OC1CCCCC1)S(C)(=O)=O | 0.66 µM
inactive | CN(c1ccc([N+](=O)[O-])cc1OCCC1CCCCC1)S(C)(=O)=O | 2.54 µM

Source: ChEMBL document CHEMBL1146286, “Synthesis of carbon-11 labeled sulfonanilide analogues as new potential PET agents for imaging of aromatase in breast cancer” (Bioorg Med Chem Lett, 2007)
